Structure (SMILES) | logP
O=NN(CCCl)C(=O)NC1CCC(=O)NC1=O (configuration not stated) | 0.37
CCC(C)NC(=O)C=Cc1ccc(Cl)cc1 (configuration not stated) | 3.37
CNC(=O)ON=CC(C)(C)[N+](=O)[O-] | 0.36
COc1cc(Cc2cnc(N)nc2N)cc(OC)c1SC | 1.54
CCS(=O)(=O)CCn1ccnc1[N+](=O)[O-] | -0.58
CCOC(=O)C(=Cc1ccccc1C)C(C)=O | 2.66
OCC1OC(Oc2ccc(I)cc2)C(O)C(O)C1O (configuration not stated) | 0.75
COc1cc(CC(=O)O)ccc1OCc1ccccc1 | 2.59
COCN1C(=O)CN=C(c2ccccc2)c2cc(Cl)ccc21 | 2.86
COC(=O)[C@@H]1[C@@H](C=C(C)C)C1(C)C | 3.76
O=[N+]([O-])c1cnc(NC2=NCCN2CCO)s1 | 1.23
COc1cccc(N2C(=O)CCC2=O)c1 | 0.18
Nc1nc(=O)c2ccccc2[nH]1 | 0.6
CN(C)C(=O)CCc1ccco1 | 0.62
COc1ccc(N(C)C(C)=O)cc1 | 0.72
NS(=O)(=O)c1cccc(OC(=O)CNC(=O)c2ccccc2)c1 | 0.84
CC(C)N(N=O)C(=O)Nc1ccccc1 | 2.5
CSC(C)=NOC(=O)N(C)SN(C)C(=O)c1ccc(Cl)cc1Cl | 3.2
Cc1cccc(OC2OC(CO)C(O)C(O)C2O)c1 (configuration not stated) | -0.2
CCN(CC)CCCNC(=O)c1ccccc1OC | 1.76
COc1cc(C)c(Cc2cnc(N)nc2N)cc1OCc1ccccc1 | 2.69

Structure (SMILES) | logP
Oc1ccc(C(c2ccc(O)cc2)c2cccnc2)cc1 | 3.13
Nc1nc(N)nc(-c2cc(Br)ccc2Br)n1 | 2.09
CC1(C)N=C(N)N=C(N)N1c1cccc(C#N)c1 | -0.24
Nc1nc(N)nc(-c2cc(Br)ccc2Cl)n1 | 2.04
COc1ccc(Cc2cnc(N)nc2N)cc1C | 1.91
O=S(=O)(Nc1cccc(C(F)(F)F)c1)C(F)(F)F | 4.5
COc1cc(C=C[N+](=O)[O-])ccc1O | 1.88
CCOC(=O)C(=Cc1cccc(OC)c1OC)C(C)=O | 2.21
CN(C)c1cnnc(N(C)C)c1 | 0.84
CC(C)C1=Nc2cc(Cl)ccc2S(=O)(=O)N1 | 2
NC1CC2CC1c1ccccc12 (configuration not stated) | 2
CCCCCCCCCCCCCC[n+]1ccc(C)c(C)c1.[I-] | 2.93
Cc1ncc([N+](=O)[O-])n1CC(O)CCl (configuration not stated) | 0.6
NNC(=O)c1ccc(N)cc1 | -0.75
COP(=O)(NCC(C)C)SC (configuration not stated) | 0.97
CN(C)C(=O)Oc1ccc(Cl)cc1 | 2.27
CNC(=O)Oc1cccc([N+](=O)[O-])c1 | 1.39
CCOC(=O)C(=Cc1cccc(C)c1)C(C)=O | 2.8
CC(C)n1nnc2ccccc21 | 1.98
CSc1nc(C)cc(C)n1 | 1.86
CCCC12CC3CC(CC(N)(C3)C1)C2 | 3.76

Structure (SMILES) | logP
O=c1c2ccccc2ncn1O | -0.45
CC(C)CN(CC(C)C)C(=O)C=Cc1ccc2c(c1)OCO2 | 4.37
NC(=O)NN=CCCc1ccccc1 | 2.32
Nc1ccc(I)cc1C(=O)O | 2.06
CCNCNC(=O)c1ccccc1 | 0.56
c1ccc(O[Si]23OCCN(CCO2)CCO3)cc1 | -0.3
CCSc1nnc(C(C)C)c(=O)n1N | 1.52
C=CCN1C(=O)SC(=Cc2ccc([N+](=O)[O-])o2)C1=O | 2.22
C#CCOn1c(=O)[nH]c(C)c(Br)c1=O | -0.1
COc1ccc(CCCC(=O)O)cc1 | 2.33
COCC(O)Cn1cc([N+](=O)[O-])nc1C (configuration not stated) | -0.36
Cc1nonc1-c1ccccn1 | 2.09
COC(=O)C(C#N)=NNc1ccc(Cl)cc1C(F)(F)F | 4.66
COC(=O)C(C#N)=NNc1ccccc1 | 2.59
ClC1=CC(Cl)C(Cl)C(Cl)C1 (configuration not stated) | 3.72
CCN(CC)C(=O)NN | -0.62
CCS(=O)(=O)c1cc(OC)c(OC)c(OC)c1 | 1.05
CSc1nnc(C2CCCCC2)c(=O)n1N | 2.14
O=S(=O)(Nc1ccc(Cl)cc1Cl)C(F)(F)F | 3.88
CCCNP(=O)(OC)SC (configuration not stated) | 0.65

— the OPERA property sets (Mansouri et al. 2018)
